The results in this text go back to ChEMBL document CHEMBL1142922, “Amphipathic benzoic acid derivatives: synthesis and binding in the hydrophobic tunnel of the zinc deacetylase LpxC” (Bioorg Med Chem, 2007).

Activity calls are given as the source filed them. The calls are words filed in the database; no cut-off is given here.

The target of experiment [1] is T1, UDP-3-O-acyl-N-acetylglucosamine deacetylase (Aquifex aeolicus (strain VF5), UniProt O67648).
T1 sequence (O67648 whole entry): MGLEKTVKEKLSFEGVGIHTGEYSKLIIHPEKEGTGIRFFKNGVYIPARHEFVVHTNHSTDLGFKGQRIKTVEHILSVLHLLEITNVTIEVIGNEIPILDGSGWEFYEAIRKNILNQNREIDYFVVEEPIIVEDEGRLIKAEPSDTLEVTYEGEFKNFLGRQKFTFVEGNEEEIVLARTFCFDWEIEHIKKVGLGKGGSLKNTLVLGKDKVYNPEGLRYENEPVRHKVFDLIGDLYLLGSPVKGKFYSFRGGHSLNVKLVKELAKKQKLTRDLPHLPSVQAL
The experiment is described as follows: (§1) Binding affinity to Aquifex aeolicus LpxC by isothermal titration calorimetry. (Isothermal titration calorimetry measures the heat released or taken up as one component is titrated into another.)

Experiment [2] concerns the target T2, UDP-3-O-acyl-N-acetylglucosamine deacetylase (Aquifex aeolicus (strain VF5)) (UniProt O67648).
T2 sequence (whole entry): T1 sequence (O67648 whole entry)
The experiment is described as §1.

Turning to `CCCCCCCOc1ccc(C(=O)O)cc1O`, the Kd in experiment [1] is 9 µM.

In experiment [1], `CCCCCCCOc1ccc(C(=O)O)cc1[N+](=O)[O-]` registered a Kd of 6.4 µM. Regarding `COc1ccc(C(=O)O)cc1`, the outcome in experiment [2] was inactive. Regarding `CCCCCCCOc1ccc(CC(=O)O)cc1`, the Kd in experiment [1] turned out to be 2.6 µM. That is a single-digit micromolar value. Consider `CCCc1ccc(-c2ccc(C(=O)O)cc2)cc1`, for which, in experiment [2], the outcome was inactive.

`CCCCCC/C=C/c1ccc(C(=O)O)cc1`: the Kd in experiment [1] is 6.2 µM. On the same count and under the same terms, for `CCCCCCCOc1ccc(C(=O)O)cc1Cl` the value was 30 µM; for `CCCCCCCOc1ccc(C(=O)O)cc1`, 2.3 µM; for `CCCCCCCc1ccc(C(=O)O)cc1`, 35 µM. Still for that read-out and setting: for `CCCCCCCOc1ccc(C(=O)O)cc1OC` the value was 8.6 µM.

As usually defined, the Kd is the free concentration of one partner at which half of the binding sites on the other are occupied at equilibrium, for simple one-to-one binding.
